System: participants with T1D
Experiment: Randomized crossover clinical trial (NCT04201496): CGM glycemic outcomes with 5 mg daily empagliflozin adjunctive to AID (Control-IQ, CIQ) or PLGS (Basal-IQ, BIQ)
Format: in vivo, human
Conditions: for % CGM time <50 mg/dL (<2.8 mmol/L) / % CGM time <60 mg/dL (<3.3 mmol/L) / % CGM time <70 mg/dL (<3.9 mmol/L) / % CGM time >180 mg/dL (>10.0 mmol/L) / % CGM time >250 mg/dL (>13.9 mmol/L) / % CGM time >300 mg/dL (>16.7 mmol/L) / CGM HBGI / CGM LBGI: median (IQR)
Procedure: FIG. 2 presents a study analysis relative to baseline, control IQ (CIQ) (e.g., AID), and basal IQ (BIQ) (e.g., PLGS) implementation, according to investigation that is demonstrable of one or more embodiments herein. Therein, an experimental arm (G1, G2) providing an initial daily dose of 5 mg empagliflozin (EMPA) is depicted against a control arm (G3, G4) without such dosing (NOEMPA). Relative characteristics of the analysis are provided below.
Study Design: A single-center, randomized, controlled, unblinded, crossover clinical trial (NCT04201496) compared four parallel groups, two groups in the experimental arm (EMPA) with 5 mg daily empagliflozin as adjunctive therapy to PLGS or AID, and two groups in the control arm (NOEMPA) with no drug and with a PLGS system (Basal-IQ, Tandem Diabetes Care) or AID system (Control-IQ, Tandem Diabetes Care). The groups within each arm differed from one another in the order of the randomly assigned crossover technological intervention, relative to PLGS being followed by AID or AID being followed by PLGS, respectively (FIG. 4). The study protocol was approved by the University of Virginia Institutional Review Board (IRB). An investigational device exemption (IDE), including an investigational new drug (IND) application for empagliflozin, was approved by the FDA. Safety aspects were overseen by an external data and safety monitoring board (DSMB). Participants: Major inclusion criteria were T1D treated with insulin for at least one year, use of continuous subcutaneous insulin infusion therapy for at least six months, age 18-65 yrs., no use of glucose lowering agents other than insulin, and Hb1Ac<9% (75 mmol/mol). Randomization: A (1:1:1:1) randomization assigned participants to either Group 1, AID-EMPA (4 weeks) followed by PLGS-EMPA (2 weeks), Group 2, PLGS-EMPA (2 weeks) followed by AID-EMPA (4 weeks), Group 3, AID-NOEMPA (4 weeks) followed by PLGS-NOEMPA (2 weeks), and Group 4, PLGS-NOEMPA (2 weeks) followed by AID-NOEMPA (4 weeks). Procedures: After confirmation of eligibility, participants underwent study equipment and medication training (experimental arm), or only study equipment training (control arm). Study equipment consisted of Dexcom G6® CGM (Dexcom Inc., San Diego, CA), Contour® Next blood glucose (Ascensia Diabetes Care, Basel, Switzerland) and Precision Xtra® blood ketone meters (Abbott, Alameda, CA) with their respective test strips; infusion sets, and the use of the t:slim X2™ insulin pump with Basal-IQ or Control-IQ technologies (Tandem Diabetes Care, San Diego, CA), according to randomization. […] Participants in the experimental arm were asked to record two days of baseline ketone values before initiating the use of the study drug. Thereafter, participants were directed to use the study CGM with EMPA for 1-2 weeks. A tolerance to the medication was assessed prior to the starting of the next study phase, including adherence to the protocol, ketone testing 2-4 times per day with monitored values not greater than 0.6 mmol/L on at least two successive occasions (the first testing upon waking in a fasted state), no adverse events relating to perineal infection or symptomatic postural hypotension, and no evidence of significant hypoglycemia <54 mg/dL, or any other listed adverse effects of the medication. Participants in the control arm were directed to use the study CGM for 1-2 weeks. Sample Size: The total sample size was projected to be 40 participants, assuming 1) 1:1:1:1 randomization; 2) 90% power and type 1 error a=0.01, further reinforcing the feasibility of hierarchical analyses. The projected recruitment sample was n=50, to accommodate up to 20% attrition rate without sacrificing statistical power. Analytical methods: For the primary analysis, TIR during the day in the 4-week AID period was compared between the two EMPA groups versus the two NOEMPA groups using a linear mixed-effects regression model while adjusting for pre-randomization HbAlc and age. […]

[1] = overall, CIQ-EMPA vs. BIQ-NOEMPA, BIQ-EMPA vs. CIQ-NOEMPA
[2] = overall, CIQ-EMPA vs. CIQ-NOEMPA, BIQ-EMPA vs. BIQ-NOEMPA
[3] = overall, CIQ-EMPA vs. CIQ-NOEMPA, BIQ-EMPA vs. BIQ-NOEMPA, listed as AID-EMPA
[4] = overnight, CIQ-EMPA vs. BIQ-EMPA
[5] = overnight, CIQ-EMPA vs. BIQ-EMPA, listed as AID-EMPA
[6] = overnight, CIQ-EMPA vs. BIQ-NOEMPA, BIQ-EMPA vs. CIQ-NOEMPA
[7] = overnight, CIQ-EMPA vs. CIQ-NOEMPA, BIQ-EMPA vs. BIQ-NOEMPA

OC[C@H]1O[C@@H](c2ccc(Cl)c(Cc3ccc(O[C@H]4CCOC4)cc3)c2)[C@H](O)[C@@H](O)[C@@H]1O [CIQ-EMPA, empagliflozin]
Difference: CGM HBGI [1]: −5.4 | Difference: CGM LBGI [1]: −0.1 | Difference: % CGM time >180 mg/dL (>10.0 mmol/L) [2]: −22.3 percentage points | Difference: CGM HBGI [2]: −2.7 | Difference: CGM LBGI [2]: 0 | Difference: CGM SD [2]: -12.3 mg/dL | Difference: % CGM time 70-180 mg/dL (<3.9-10.0 mmol/L) [3]: +14.7 percentage points | Difference: % CGM time >180 mg/dL (>10.0 mmol/L) [3]: −12.3 percentage points | Difference: % CGM time >250 mg/dL (>13.9 mmol/L) [3]: −4.9 percentage points | % CGM time <70-140 mg/dL (<3.9-7.8 mmol/L) (overall, n = 16, mean ± SD): 59.6 ± 13.7% | % CGM time <70-180 mg/dL (<3.9-10.0 mmol/L) (overall, n = 16, mean ± SD): 83 ± 10.6% | CGM CV (%) (overall, n = 16, mean ± SD): 29.4 ± 3.6% | CGM SD (overall, n = 16, mean ± SD): 40.5 ± 9.4 mg/dL | Mean CGM glucose (overall, n = 16, mean ± SD): 137 ± 18.6 mg/dL | % CGM time <50 mg/dL (<2.8 mmol/L) (overall, n = 16): 0(0-0.2) % | % CGM time <60 mg/dL (<3.3 mmol/L) (overall, n = 16): 0.3(0.1-0.5) % | % CGM time <70 mg/dL (<3.9 mmol/L) (overall, n = 16): 1.1(0.5-1.5) % | % CGM time >180 mg/dL (>10.0 mmol/L) (overall, n = 16): 11.5(7-19) % | % CGM time >250 mg/dL (>13.9 mmol/L) (overall, n = 16): 1.1(0.2-2.9) % | % CGM time >300 mg/dL (>16.7 mmol/L) (overall, n = 16): 0(0-0.5) % | CGM HBGI (overall, n = 16): 2.7(2-4.4) | CGM LBGI (overall, n = 16): 0.5(0.4-0.6) | Difference (95% CI): % CGM time 70 mg/dL (<3.9 mmol/L) [4]: −1.5 percentage points | Difference (95% CI): % CGM time <50 mg/dL (<2.8 mmol/L) [4]: 0.2 percentage points | Difference (95% CI): % CGM time <60 mg/dL (<3.3 mmol/L) [4]: −0.4 percentage points | Difference (95% CI): % CGM time >250 mg/dL (>13.9 mmol/L) [4]: −2.5 percentage points | Difference (95% CI): % CGM time >300 mg/dL (>16.7 mmol/L) [4]: −2.5 percentage points | Difference (95% CI): CGM CV (%) [4]: −5.1% | Difference (95% CI): CGM HBGI [4]: −2.1 | Difference (95% CI): CGM LBGI [4]: −0.5 | Difference (95% CI): CGM SD [4]: -10.2 mg/dL | Difference (95% CI): Mean CGM glucose [4]: -11.7 mg/dL | Difference (95% CI): % CGM time 70-180 mg/dL (3.9-10.0 mmol/L) [5]: +10.2 percentage points | Difference (95% CI): % CGM time >180 mg/dL (>10.0 mmol/L) [5]: −9.5 percentage points | Difference (95% CI): % CGM time <60 mg/dL (<3.3 mmol/L) [6]: −0.3 percentage points | Difference (95% CI): % CGM time >180 mg/dL (>10.0 mmol/L) [6]: −27.3 percentage points | Difference (95% CI): % CGM time >250 mg/dL (>13.9 mmol/L) [6]: −16.4 percentage points | Difference (95% CI): % CGM time >300 mg/dL (>16.7 mmol/L) [6]: −7.6 percentage points | Difference (95% CI): CGM CV (%) [6]: −11.1% | Difference (95% CI): CGM HBGI [6]: −7.3 | Difference (95% CI): CGM LBGI [6]: −0.3 | Difference (95% CI): CGM SD [6]: -27.1 mg/dL | Difference (95% CI): Mean CGM glucose [6]: -36.2 mg/dL | Difference (95% CI): % CGM time 70 mg/dL (<3.9 mmol/L) [7]: −1.1 percentage points | Difference (95% CI): % CGM time <50 mg/dL (<2.8 mmol/L) [7]: −0.1 percentage points | Difference (95% CI): % CGM time <60 mg/dL (<3.3 mmol/L) [7]: −0.6 percentage points | Difference (95% CI): % CGM time >180 mg/dL (>10.0 mmol/L) [7]: −14.6 percentage points | Difference (95% CI): % CGM time >250 mg/dL (>13.9 mmol/L) [7]: −5.5 percentage points | Difference (95% CI): CGM HBGI [7]: −3.2 | Difference (95% CI): CGM LBGI [7]: 0.2 | Difference (95% CI): CGM SD [7]: -18.3 mg/dL | Difference (95% CI): Mean CGM glucose [7]: -21.5 mg/dL | % CGM time 70-140 mg/dL (3.9-7.8 mmol/L) (overnight, n = 16, mean ± SD): 64 ± 18% | % CGM time 70-180 mg/dL (3.9-10.0 mmol/L) (overnight, n = 16, mean ± SD): 87 ± 13% | CGM CV (%) (overnight, n = 16, mean ± SD): 25.4 ± 5.4% | CGM SD (overnight, n = 16, mean ± SD): 34.2 ± 10.7 mg/dL | Mean CGM glucose (overnight, n = 16, mean ± SD): 133 ± 20 mg/dL | % CGM time <50 mg/dL (<2.8 mmol/L) (overnight, n = 16): 0(0-0.3) % | % CGM time <60 mg/dL (<3.3 mmol/L) (overnight, n = 16): 0.3(0-0.5) % | % CGM time <70 mg/dL (<3.9 mmol/L) (overnight, n = 16): 0.7(0-1.3) % | % CGM time >180 mg/dL (>10.0 mmol/L) (overnight, n = 16): 6.3(3.3-11.1) % | % CGM time >250 mg/dL (>13.9 mmol/L) (overnight, n = 16): 0(0-2) % | % CGM time >300 mg/dL (>16.7 mmol/L) (overnight, n = 16): 0(0-0.4) % | CGM HBGI (overnight, n = 16): 2.1(1.3-2.7) | CGM LBGI (overnight, n = 16): 0.4(0.2-0.5) | night-time in range, h out of 8 h (overnight, out of 8 h of the night-time, listed as AID-EMPA): 7 h

Source: US20250345512A1, “COMBINATION SODIUM-GLUCOSE COTRANSPORTER INHIBITOR (SGLTI) INSULIN THERAPY FOR GLYCEMIC CONTROL IN TYPE 1 DIABETES” (University of Virginia Patent Foundation, priority 2022, published 2025)
